According to ChEMBL document CHEMBL3885881, “DrugMatrix”:

Species: Rattus norvegicus
Assay: DrugMatrix - Regimen: Daily Repeat
Type: toxicity, organism-based, Sprague-Dawley
Design: regimen Daily Repeat, gender Male, age 6-8 weeks
Settings: in vivo, po, route oral GAVAGE, vehicle .5 % CMC; for ABSOLUTE BASOPHIL / ABSOLUTE EOSINOPHIL / ABSOLUTE LYMPHOCYTE / ABSOLUTE MONOCYTE / ABSOLUTE SEGMENTED NEUTROPHIL / BASOPHIL / EOSINOPHIL / ERYTHROCYTE COUNT / HEMATOCRIT / HEMOGLOBIN / LEUKOCYTE COUNT / LYMPHOCYTE / MEAN CORPUSCULAR HEMOGLOBIN / MEAN CORPUSCULAR HEMOGLOBIN CONCENTRATION / MEAN CORPUSCULAR VOLUME / MONOCYTE / NEUTROPHIL / NUCLEATED RED BLOOD CELLS / PLATELET COUNT: tissue Blood; for ALANINE AMINOTRANSFERASE / ALBUMIN / ALKALINE PHOSPHATASE / ASPARTATE AMINOTRANSFERASE / BLOOD UREA NITROGEN / CARBON DIOXIDE / CHLORIDE / CHOLESTEROL / CREATINE PHOSPHOKINASE / CREATININE / GLUCOSE / LACTATE DEHYDROGENASE / LIPASE / PHOSPHORUS / POTASSIUM / SODIUM / TOTAL BILIRUBIN / TOTAL PROTEIN / URIC ACID: tissue Plasma
[1] = 0 mg/kg, 72 h, dose level Control, time 3 day
[2] = 0 mg/kg, 120 h, dose level Control, time 5 day
[3] = 150 mg/kg, 72 h, dose level Low, time 3 day

## C[C@]1(Cn2ccnn2)[C@H](C(=O)O)N2C(=O)C[C@H]2S1(=O)=O [TAZOBACTAM]
[1]
  ABSOLUTE BASOPHIL: 0 CELLS/uL
  ABSOLUTE EOSINOPHIL: 222.83 CELLS/uL
  ABSOLUTE LYMPHOCYTE: 14453 CELLS/uL
  ABSOLUTE MONOCYTE: 0 CELLS/uL
  ABSOLUTE SEGMENTED NEUTROPHIL: 1490.83 CELLS/uL
  BASOPHIL: 0%
  EOSINOPHIL: 1.33%
  ERYTHROCYTE COUNT: 5.76 x10E6/uL
  HEMATOCRIT: 36.52%
  HEMOGLOBIN: 13.45 G/DL
  LEUKOCYTE COUNT: 16.17 x10E3/uL
  LYMPHOCYTE: 89.33%
  MEAN CORPUSCULAR HEMOGLOBIN: 23.37 pg
  MEAN CORPUSCULAR HEMOGLOBIN CONCENTRATION: 36.85 G/DL
  MEAN CORPUSCULAR VOLUME: 63.47 fL
  MONOCYTE: 0%
  NEUTROPHIL: 9.33%
  NUCLEATED RED BLOOD CELLS: 0 /100WBC
  PLATELET COUNT: 1239.5 x10E3/uL
  ALANINE AMINOTRANSFERASE: 43.83 u/L
  ALBUMIN: 4.27 G/DL
  ALKALINE PHOSPHATASE: 398.83 u/L
  ASPARTATE AMINOTRANSFERASE: 81.17 u/L
  BLOOD UREA NITROGEN: 17.67 mg/dL
  CARBON DIOXIDE: 27.5 mmol/L
  CHLORIDE: 99.17 MEQ/L
  CHOLESTEROL: 74 mg/dL
  CREATINE PHOSPHOKINASE: 331.5 u/L
  CREATININE: 0.2 mg/dL
  GLUCOSE: 171.33 mg/dL
  LACTATE DEHYDROGENASE: 241.67 u/L
  LIPASE: 9.5 u/L
  PHOSPHORUS: 12.25 mg/dL
  POTASSIUM: 6.33 MEQ/L
  SODIUM: 141.28 MEQ/L
  TOTAL BILIRUBIN: 0.15 mg/dL
  TOTAL PROTEIN: 5.98 G/DL
  URIC ACID: 1.63 mg/dL
[2]
  ABSOLUTE BASOPHIL: 0 CELLS/uL
  ABSOLUTE EOSINOPHIL: 148.67 CELLS/uL
  ABSOLUTE LYMPHOCYTE: 16020.5 CELLS/uL
  ABSOLUTE MONOCYTE: 29.17 CELLS/uL
  ABSOLUTE SEGMENTED NEUTROPHIL: 1468.33 CELLS/uL
  BASOPHIL: 0%
  EOSINOPHIL: 1%
  ERYTHROCYTE COUNT: 5.78 x10E6/uL
  HEMATOCRIT: 35.77%
  HEMOGLOBIN: 13.4 G/DL
  LEUKOCYTE COUNT: 17.67 x10E3/uL
  LYMPHOCYTE: 90.5%
  MEAN CORPUSCULAR HEMOGLOBIN: 23.22 pg
  MEAN CORPUSCULAR HEMOGLOBIN CONCENTRATION: 37.47 G/DL
  MEAN CORPUSCULAR VOLUME: 61.92 fL
  MONOCYTE: 0.17%
  NEUTROPHIL: 8.33%
  NUCLEATED RED BLOOD CELLS: 0.17 /100WBC
  PLATELET COUNT: 1255.5 x10E3/uL
  ALANINE AMINOTRANSFERASE: 46.5 u/L
  ALBUMIN: 4.38 G/DL
  ALKALINE PHOSPHATASE: 336 u/L
  ASPARTATE AMINOTRANSFERASE: 76.5 u/L
  BLOOD UREA NITROGEN: 20 mg/dL
  CARBON DIOXIDE: 27.5 mmol/L
  CHLORIDE: 101 MEQ/L
  CHOLESTEROL: 71.33 mg/dL
  CREATINE PHOSPHOKINASE: 231.83 u/L
  CREATININE: 0.37 mg/dL
  GLUCOSE: 168.83 mg/dL
  LACTATE DEHYDROGENASE: 174 u/L
  LIPASE: 8.67 u/L
  PHOSPHORUS: 11.48 mg/dL
  POTASSIUM: 6.82 MEQ/L
  SODIUM: 143.8 MEQ/L
  TOTAL BILIRUBIN: 0.2 mg/dL
  TOTAL PROTEIN: 5.98 G/DL
  URIC ACID: 1.83 mg/dL
[3]
  ABSOLUTE BASOPHIL: 0 CELLS/uL
  ABSOLUTE EOSINOPHIL: 82.67 CELLS/uL
  ABSOLUTE LYMPHOCYTE: 6416 CELLS/uL
  ABSOLUTE MONOCYTE: 0 CELLS/uL
  ABSOLUTE SEGMENTED NEUTROPHIL: 534.67 CELLS/uL
  BASOPHIL: 0%
  EOSINOPHIL: 1%
  ERYTHROCYTE COUNT: 5.07 x10E6/uL
  HEMATOCRIT: 32.53%
  HEMOGLOBIN: 12.5 G/DL
  LEUKOCYTE COUNT: 7.03 x10E3/uL
  LYMPHOCYTE: 91.67%
  MEAN CORPUSCULAR HEMOGLOBIN: 24.63 pg
  MEAN CORPUSCULAR HEMOGLOBIN CONCENTRATION: 38.43 G/DL
  MEAN CORPUSCULAR VOLUME: 64.17 fL
  MONOCYTE: 0%
  NEUTROPHIL: 7.33%
  NUCLEATED RED BLOOD CELLS: 0 /100WBC
  PLATELET COUNT: 1184.33 x10E3/uL
  ALANINE AMINOTRANSFERASE: 52.67 u/L
  ALBUMIN: 4.23 G/DL
  ALKALINE PHOSPHATASE: 410.33 u/L
  ASPARTATE AMINOTRANSFERASE: 79.67 u/L
  BLOOD UREA NITROGEN: 16.67 mg/dL
  CARBON DIOXIDE: 24.33 mmol/L
  CHLORIDE: 104 MEQ/L
  CHOLESTEROL: 78 mg/dL
  CREATINE PHOSPHOKINASE: 280.33 u/L
  CREATININE: 0.2 mg/dL
  GLUCOSE: 152.33 mg/dL
  LACTATE DEHYDROGENASE: 134.33 u/L
  LIPASE: 8 u/L
  PHOSPHORUS: 11.47 mg/dL
  POTASSIUM: 6.02 MEQ/L
  SODIUM: 144.87 MEQ/L
  TOTAL BILIRUBIN: 0.2 mg/dL
  TOTAL PROTEIN: 5.9 G/DL
  URIC ACID: 1.03 mg/dL
